In ChEMBL document CHEMBL1201862, “PubChem BioAssay data set” (2004):
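How tested: cells in 96-well plates exposed to compound for 48 hours at five concentrations. Here, GI50 denotes the concentration required for 50% inhibition of growth.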 Calls of active or inactive are those of the source. Cut-off read from the data, not from the text of the source: active = GI50 up to about 1.1 µM and inactive = higher.

Experiments:
Test in all cases: growth of human tumour cells (NCI), 48 h
BT-549 = tested on: BT-549
NCI-H522 = tested on: NCI-H522
HCT-15 = tested on: HCT-15
NCI-H23 = tested on: NCI-H23
SF-295 = tested on: SF-295
HCT-116 = tested on: HCT-116
HT-29 = tested on: HT-29
UO-31 = tested on: UO-31
PC-3 = tested on: PC-3
TK-10 = tested on: TK-10
EKVX = tested on: EKVX
SK-MEL-2 = tested on: SK-MEL-2
IGROV-1 = tested on: IGROV-1
Hs-578T = tested on: Hs-578T
NCI/ADR-RES = tested on: NCI/ADR-RES
T47D = tested on: T47D
OVCAR-3 = tested on: OVCAR-3
MDA-MB-435 = tested on: MDA-MB-435
SNB-19 = tested on: SNB-19

COC(=O)C1=C(C)NC(CF)=C(C(=O)OC)C1c1cccc2c(=O)c3ccccc3oc12 (centres undefined)
GI50 (BT-549): 15.8 µM (inactive) | GI50 (NCI-H522): 6.31 µM (inactive) | GI50 (HCT-15): 4.79 µM | GI50 (NCI-H23): 36.8 µM (inactive) | GI50 (SF-295): 3.31 µM (inactive) | GI50 (HCT-116): 5.2 µM (inactive) | GI50 (HT-29): 3.58 µM (inactive) | GI50 (UO-31): 6.59 µM (inactive) | GI50 (PC-3): 2.69 µM (inactive) | GI50 (TK-10): 35.8 µM (inactive) | GI50 (EKVX): 19.1 µM (inactive) | GI50 (SK-MEL-2): 20.4 µM (inactive) | GI50 (IGROV-1): 2.37 µM (inactive) | GI50 (Hs-578T): 9.62 µM (inactive) | GI50 (NCI/ADR-RES): 2.79 µM (inactive) | GI50 (T47D): 24.3 µM (inactive) | GI50 (OVCAR-3): 4.85 µM (inactive) | GI50 (MDA-MB-435): 3.15 µM (inactive)

O=C(O)CCC/N=C(\C(=N\CCCC(=O)O)c1ccccc1)c1ccccc1
GI50 (BT-549): > 100 µM (inactive) | GI50 (HCT-15): > 100 µM | GI50 (NCI-H23): > 100 µM (inactive) | GI50 (SNB-19): > 100 µM (inactive) | GI50 (SF-295): > 100 µM (inactive) | GI50 (HCT-116): > 100 µM (inactive) | GI50 (UO-31): > 100 µM (inactive) | GI50 (PC-3): > 100 µM (inactive) | GI50 (TK-10): > 100 µM (inactive) | GI50 (EKVX): > 100 µM (inactive) | GI50 (SK-MEL-2): > 100 µM (inactive) | GI50 (IGROV-1): > 100 µM (inactive) | GI50 (Hs-578T): > 100 µM (inactive) | GI50 (NCI/ADR-RES): > 100 µM (inactive) | GI50 (T47D): > 100 µM (inactive) | GI50 (OVCAR-3): > 100 µM (inactive) | GI50 (MDA-MB-435): > 100 µM (inactive)

S=C1CC(c2ccccc2)Sc2ccccc2N1 (centres undefined)
GI50 (BT-549): 53 µM (inactive) | GI50 (NCI-H522): 31.3 µM (inactive) | GI50 (HCT-15): 93.3 µM | GI50 (NCI-H23): 81.8 µM (inactive) | GI50 (SNB-19): 35.6 µM (inactive) | GI50 (SF-295): > 100 µM (inactive) | GI50 (HCT-116): 37 µM (inactive) | GI50 (HT-29): > 100 µM (inactive) | GI50 (UO-31): > 100 µM (inactive) | GI50 (PC-3): 6.85 µM (inactive) | GI50 (TK-10): 49.3 µM (inactive) | GI50 (EKVX): 72.8 µM (inactive) | GI50 (IGROV-1): > 100 µM (inactive) | GI50 (Hs-578T): 25.5 µM (inactive) | GI50 (NCI/ADR-RES): 68.9 µM (inactive) | GI50 (T47D): > 100 µM (inactive) | GI50 (OVCAR-3): 45.5 µM (inactive) | GI50 (MDA-MB-435): 61.1 µM (inactive)

CC(=O)NC1C(OCc2ccccc2)OC(CO)C(O)C1OC(C)C(=O)NC(C(=O)NC(CCC(=O)Nc1ccc2c(c1)CN1C(=O)c3ccccc3C1=N2)C(N)=O)C(C)C (centres undefined)
GI50 (BT-549): > 100 µM (inactive) | GI50 (HCT-15): > 100 µM | GI50 (NCI-H23): > 100 µM (inactive) | GI50 (SNB-19): > 100 µM (inactive) | GI50 (SF-295): > 100 µM (inactive) | GI50 (HCT-116): > 100 µM (inactive) | GI50 (HT-29): > 100 µM (inactive) | GI50 (UO-31): > 100 µM (inactive) | GI50 (PC-3): > 100 µM (inactive) | GI50 (TK-10): > 100 µM (inactive) | GI50 (EKVX): > 100 µM (inactive) | GI50 (SK-MEL-2): > 100 µM (inactive) | GI50 (IGROV-1): > 100 µM (inactive) | GI50 (Hs-578T): > 100 µM (inactive) | GI50 (NCI/ADR-RES): > 100 µM (inactive) | GI50 (T47D): > 100 µM (inactive) | GI50 (OVCAR-3): > 100 µM (inactive) | GI50 (MDA-MB-435): > 100 µM (inactive)

CN(C)CCOc1ccc2[nH]c(C(=O)N3CC(CCl)c4c3cc([N+](=O)[O-])c3ccccc43)cc2c1 (centres undefined)
GI50 (BT-549): 2.3 µM (inactive) | GI50 (HCT-15): 1.86 µM | GI50 (NCI-H23): 2.74 µM (inactive) | GI50 (SNB-19): 2.36 µM (inactive) | GI50 (SF-295): 2.51 µM (inactive) | GI50 (HCT-116): 1.67 µM (inactive) | GI50 (HT-29): 2.15 µM (inactive) | GI50 (UO-31): 15.1 µM (inactive) | GI50 (PC-3): 2.78 µM (inactive) | GI50 (TK-10): 1.94 µM (inactive) | GI50 (EKVX): 3.13 µM (inactive) | GI50 (SK-MEL-2): 2.15 µM (inactive) | GI50 (IGROV-1): 2.14 µM (inactive) | GI50 (Hs-578T): 3.01 µM (inactive) | GI50 (NCI/ADR-RES): 1.65 µM (inactive) | GI50 (T47D): 1.89 µM (inactive) | GI50 (OVCAR-3): 1.87 µM (inactive) | GI50 (MDA-MB-435): 2 µM (inactive)
